The source made the active and inactive calls. The rule behind the calls is not given here.
How the values were obtained:
[1] = target: T1, Calcitonin gene-related peptide type 1 receptor (Homo sapiens, UniProt O60894+Q16602); assay: (§1) Displacement of [125I]CGRP from human recombinant CGRP receptor
[2] = target: T1, Calcitonin gene-related peptide type 1 receptor; assay: Activity at CGRP receptor assessed as inhibition of CGRP-stimulated cAMP production; type: functional
[3] = target: Calcitonin gene-related peptide type 1 receptor (Homo sapiens) (UniProt Q16602); assay: as §1
Chain of Calcitonin gene-related peptide type 1 receptor (Homo sapiens) (Q16602 whole entry): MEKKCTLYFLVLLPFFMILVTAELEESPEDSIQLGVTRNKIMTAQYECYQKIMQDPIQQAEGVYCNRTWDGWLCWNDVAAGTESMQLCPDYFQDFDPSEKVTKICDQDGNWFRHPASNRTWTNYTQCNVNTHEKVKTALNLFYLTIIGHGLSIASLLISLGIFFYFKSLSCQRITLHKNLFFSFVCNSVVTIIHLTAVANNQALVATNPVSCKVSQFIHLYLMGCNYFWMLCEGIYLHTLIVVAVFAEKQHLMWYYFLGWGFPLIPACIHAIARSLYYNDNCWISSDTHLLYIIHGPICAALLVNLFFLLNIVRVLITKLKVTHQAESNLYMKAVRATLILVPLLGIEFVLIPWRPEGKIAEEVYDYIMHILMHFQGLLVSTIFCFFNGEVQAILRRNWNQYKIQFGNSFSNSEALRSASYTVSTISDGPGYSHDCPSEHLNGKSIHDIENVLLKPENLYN

T1 sequence (Q16602 whole entry, one chain of several): as the sequence (Q16602 whole entry) above

| Compound | Ki [1] [nM] | IC50 [2] [nM] | Activity [3] |
| --- | --- | --- | --- |
| O=C(N[C@@H]1N=C(c2ccccc2)c2ccccc2N(CC(F)(F)F)C1=O)N1CCC(n2c(=O)[nH]c3c4ccccc4ccc32)CC1 | 27 | 369 | – |
| O=C(N[C@@H]1N=C(c2ccccc2)c2ccccc2N(CC(F)(F)F)C1=O)N1CCC(n2cc(CO)[nH]c2=O)CC1 | 20000 | – | – |
| O=C(N[C@@H]1N=C(c2ccccc2)c2ccccc2N(CC(F)(F)F)C1=O)N1CCC(n2c(O)nc3c2ccc[n+]3[O-])CC1 | 1000 | – | – |
| O=C(N[C@@H]1N=C(c2ccccc2)c2ccccc2N(CC(F)(F)F)C1=O)N1CCC(n2cc[nH]c2=O)CC1 | 583 | 672 | – |
| COC(=O)c1cn(C2CCN(C(=O)N[C@@H]3N=C(c4ccccc4)c4ccccc4N(CC(F)(F)F)C3=O)CC2)c(=O)[nH]1 | 110 | 156 | – |
| COc1cccc(-c2cn(C3CCN(C(=O)N[C@@H]4N=C(c5ccccc5)c5ccccc5N(CC(F)(F)F)C4=O)CC3)c(O)n2)c1 | 1.1 | 5.1 | – |
| CC(C)c1cn(C2CCN(C(=O)N[C@@H]3N=C(c4ccccc4)c4ccccc4N(CC(F)(F)F)C3=O)CC2)c(=O)[nH]1 | 5340 | – | – |
| O=C(N[C@@H]1N=C(c2ccccc2)c2ccccc2N(CC(F)(F)F)C1=O)N1CCC(n2cc(-c3cccc(F)c3)nc2O)CC1 | 11 | 46 | – |
| O=C(N[C@@H]1N=C(c2ccccc2)c2ccccc2N(CC(F)(F)F)C1=O)N1CCC(n2c(=O)[nH]c3cccnc32)CC1 | 427 | 1140 | – |
| O=C(N[C@@H]1N=C(c2ccccc2)c2ccccc2N(CC(F)(F)F)C1=O)N1CCC(n2c(O)nc3c(Cl)cccc32)CC1 | 143 | 446 | – |
| N#Cc1cn(C2CCN(C(=O)N[C@@H]3N=C(c4ccccc4)c4ccccc4N(CC(F)(F)F)C3=O)CC2)c(=O)[nH]1 | 575 | 990 | – |
| O=C(N[C@@H]1N=C(c2ccccc2)c2ccccc2N(CC(F)(F)F)C1=O)N1CCC(N2Cc3ccncc3NC2=O)CC1 | 350 | 224 | – |
| O=C(N[C@@H]1N=C(c2ccccc2)c2ccccc2N(CC(F)(F)F)C1=O)N1CCC(n2cc(-c3ccccc3)[nH]c2=O)CC1 | 11 | 14 | – |
| O=C(N[C@@H]1N=C(c2ccccc2)c2ccccc2N(CC(F)(F)F)C1=O)N1CCC(n2c(O)nc3cc(Cl)ccc32)CC1 | > 10000 | – | – |
| O=C(N[C@@H]1N=C(c2ccccc2)c2ccccc2N(CC(F)(F)F)C1=O)N1CCC(n2cc(-c3ccccn3)[nH]c2=O)CC1 | 27 | 37 | – |
| O=C(N[C@@H]1N=C(c2ccccc2)c2ccccc2N(CC(F)(F)F)C1=O)N1CCC(n2c(=O)[nH]c3nccnc32)CC1 | 156 | 286 | – |
| Cc1ccc(-c2cn(C3CCN(C(=O)N[C@@H]4N=C(c5ccccc5)c5ccccc5N(CC(F)(F)F)C4=O)CC3)c(=O)[nH]2)cc1 | 6.3 | 85 | – |
| O=C(N[C@@H]1N=C(c2ccccc2)c2ccccc2N(CC(F)(F)F)C1=O)N1CCC(n2c(O)nc3cc(C(F)(F)F)ccc32)CC1 | 3800 | – | – |
| O=C(N[C@@H]1N=C(c2ccccc2)c2ccccc2N(CC(F)(F)F)C1=O)N1CCC(n2cc(-c3ccc(F)cc3)[nH]c2=O)CC1 | 11 | 107 | – |
| Cc1cccc2c1nc(O)n2C1CCN(C(=O)N[C@@H]2N=C(c3ccccc3)c3ccccc3N(CC(F)(F)F)C2=O)CC1 | 6900 | – | – |
| O=C(N[C@@H]1N=C(c2ccccc2)c2ccccc2N(CC(F)(F)F)C1=O)N1CCC(N2CC(c3ccccn3)NC2=O)CC1 (stereo partly specified) | 2000 | – | – |
| O=C(N[C@@H]1N=C(c2ccccc2)c2ccccc2N(CC(F)(F)F)C1=O)N1CCC(N2CCNC2=O)CC1 | 855 | 3100 | – |
| O=C(N[C@@H]1N=C(c2ccccc2)c2ccccc2N(CC(F)(F)F)C1=O)N1CCC(n2c(=O)[nH]c3ncncc32)CC1 | 51 | 430 | – |
| O=C(N[C@@H]1N=C(c2ccccc2)c2ccccc2N(CC(F)(F)F)C1=O)N1CCC(n2cc(-c3ccc(OC(F)F)cc3)nc2O)CC1 | 19 | 74 | – |
| O=C1CN(C2CCN(C(=O)N[C@@H]3N=C(c4ccccc4)c4ccccc4N(CC(F)(F)F)C3=O)CC2)C(=O)N1 | 29 | 100 | – |
| O=C(O)c1ccc2c(c1)[nH]c(=O)n2C1CCN(C(=O)N[C@@H]2N=C(c3ccccc3)c3ccccc3N(CC(F)(F)F)C2=O)CC1 | 810 | 715 | – |

| Compound | Ki [1] [nM] | IC50 [2] [nM] | Activity [3] |
| --- | --- | --- | --- |
| Cc1cccc2nc(O)n(C3CCN(C(=O)N[C@@H]4N=C(c5ccccc5)c5ccccc5N(CC(F)(F)F)C4=O)CC3)c12 | 20000 | – | – |
| O=C(N[C@@H]1N=C(c2ccccc2)c2ccccc2N(CC(F)(F)F)C1=O)N1CCC(N2Cc3cccnc3NC2=O)CC1 | 295 | 616 | – |
| O=C(N[C@@H]1N=C(c2ccccc2)c2ccccc2N(CC(F)(F)F)C1=O)N1CCC(n2c(=O)[nH]c3ccccc32)CC1 | 2250 | – | – |
| O=C(N[C@@H]1N=C(c2ccccc2)c2ccccc2N(CC(F)(F)F)C1=O)N1CCC(n2c(=O)[nH]c3ccc(F)cc32)CC1 | 983 | 1400 | – |
| O=C(N[C@@H]1N=C(c2ccccc2)c2ccccc2N(CC(F)(F)F)C1=O)N1CCC(n2c(O)nc3cccc(Cl)c32)CC1 | 6400 | – | – |
| O=C(N[C@@H]1N=C(c2ccccc2)c2ccccc2N(CC(F)(F)F)C1=O)N1CCC(n2c(O)nc3cc(F)ccc32)CC1 | 2800 | – | – |
| O=C(N[C@@H]1N=C(c2ccccc2)c2ccccc2N(CC(F)(F)F)C1=O)N1CCC(N2C(=O)NCc3ccccc32)CC1 | – | – | inactive |
| CS(=O)(=O)c1ccc2c(c1)[nH]c(=O)n2C1CCN(C(=O)N[C@@H]2N=C(c3ccccc3)c3ccccc3N(CC(F)(F)F)C2=O)CC1 | 260 | 220 | – |
| O=C(N[C@@H]1N=C(c2ccccc2)c2ccccc2N(CC(F)(F)F)C1=O)N1CCC(n2nc(-c3ccccc3)[nH]c2=O)CC1 | 26 | 100 | – |
| O=C(N[C@@H]1N=C(c2ccccc2)c2ccccc2N(CC(F)(F)F)C1=O)N1CCC(n2c(=O)[nH]c3cnccc32)CC1 | 685 | 1380 | – |
| O=C(N[C@@H]1N=C(c2ccccc2)c2ccccc2N(CC(F)(F)F)C1=O)N1CCC(N2Cc3ccccc3NC2=O)CC1 | 48 | 34 | – |
| Cc1ccc2c(c1)[nH]c(=O)n2C1CCN(C(=O)N[C@@H]2N=C(c3ccccc3)c3ccccc3N(CC(F)(F)F)C2=O)CC1 | 6100 | – | – |
| O=C(N[C@@H]1N=C(c2ccccc2)c2ccccc2N(CC(F)(F)F)C1=O)N1CCC(n2c(O)nc3c(F)cccc32)CC1 | 375 | 373 | – |
| O=C(N[C@@H]1N=C(c2ccccc2)c2ccccc2N(CC(F)(F)F)C1=O)N1CCC(N2CC(c3cccnc3)NC2=O)CC1 (stereo partly specified) | 1050 | – | – |
| O=C(N[C@@H]1N=C(c2ccccc2)c2ccccc2N(CC(F)(F)F)C1=O)N1CCC(n2c(=O)[nH]c3ncccc32)CC1 | 23 | 49 | – |
| O=C(N[C@@H]1N=C(c2ccccc2)c2ccccc2N(CC(F)(F)F)C1=O)N1CCC(n2cc(-c3ccc(OC(F)(F)F)cc3)[nH]c2=O)CC1 | 104 | 431 | – |
| O=C(O)c1cn(C2CCN(C(=O)N[C@@H]3N=C(c4ccccc4)c4ccccc4N(CC(F)(F)F)C3=O)CC2)c(=O)[nH]1 | 2900 | – | – |
| O=C(N[C@@H]1N=C(c2ccccc2)c2ccccc2N(CC(F)(F)F)C1=O)N1CCC(N2CC(c3ccncc3)NC2=O)CC1 (stereo partly specified) | 720 | 804 | – |
| NC(=O)c1ccc2c(c1)[nH]c(=O)n2C1CCN(C(=O)N[C@@H]2N=C(c3ccccc3)c3ccccc3N(CC(F)(F)F)C2=O)CC1 | 1050 | – | – |
| O=C(N[C@@H]1N=C(c2ccccc2)c2ccccc2N(CC(F)(F)F)C1=O)N1CCC(n2cc(Cc3ccccc3)[nH]c2=O)CC1 | 1130 | 450 | – |
| O=C(N[C@@H]1N=C(c2ccccc2)c2ccccc2N(CC(F)(F)F)C1=O)N1CCC(N2Cc3ncccc3NC2=O)CC1 | 965 | 1840 | – |
| O=C(N[C@@H]1N=C(c2ccccc2)c2ccccc2N(CC(F)(F)F)C1=O)N1CCC(n2c(=O)[nH]c3ccncc32)CC1 | 853 | 1400 | – |
| COc1ccc(-c2cn(C3CCN(C(=O)N[C@@H]4N=C(c5ccccc5)c5ccccc5N(CC(F)(F)F)C4=O)CC3)c(=O)[nH]2)cc1 | 205 | 193 | – |
| O=C(N[C@@H]1N=C(c2ccccc2)c2ccccc2N(CC(F)(F)F)C1=O)N1CCC(N2Cc3cnccc3NC2=O)CC1 | 320 | 627 | – |
| O=C(N[C@@H]1N=C(c2ccccc2)c2ccccc2N(CC(F)(F)F)C1=O)N1CCC(N2CC(c3ccccc3)NC2=O)CC1 (stereo partly specified) | 339 | 790 | – |

Reference: ChEMBL document CHEMBL1149493, “Benzodiazepine calcitonin gene-related peptide (CGRP) receptor antagonists: optimization of the 4-substituted piperidine” (Bioorg Med Chem Lett, 2006)
